Measurements from patent US20210396738A1, “3D HUMAN CANCER MODEL-BASED COMBINATORIAL DRUG DEVELOPMENT METHOD” (PreComb Therapeutics AG, priority 2018, published 2021).
Entries after “also recorded” stand apart in the source; their conditions may differ. Like-named read-outs stand apart in the source and are kept apart here.

How the values were obtained:
[1] = test system: NSCLC microtumors (A549 NSCLC cells with human lung fibroblasts Wi38); experiment: Non-small cell lung cancer (NSCLC) microtumor size/growth assay; format: cell-based; settings: for efficacy: impact on tumor growth: Vinorelbin high concentration vs low and high concentrated Docetaxel, dosed 2× for 8h with an 8h gap (FIG. 13B, D); for effect on NSCLC microtumor growth: dosed 2× for 8h with 48h gap (FIG. 6, FIG. 11); for Response: 14 days window
Method: The NSCLC model was produced by mixing A549 NSCLC cells (ATCC® CCL-18S™) with human lung fibroblasts (Wi38, ATCC® CCL-7S™) in a non-adhesive 96-well plate (GravityTRAP™). Drugs were dosed 2× for 8h with 48h gap.
Single and drug combinations were dosed 2× for 8h with a gap of 48h and growth monitored over time.
(§1) FIG. 13 exemplifies tox testing of single drugs using connective/stromal microtissues (Wi38) and efficacy testing on non-small cell tumor microtissues (A549; Wi38). Vinorelbin and Docetaxel, both disrupting microtubule, were dosed 2× for 8h with an 8h gap.

[2] = test system: connective/stromal microtissues (Wi38); experiment: Tox testing on connective/stromal microtissues; format: cell-based, human; settings: dosed 2× for 8h with an 8h gap (FIG. 13A, C)
Method: as §1

[3] = test system: pancreatic microtumors from pancreatic cancer cell line Panc-1 in co-culture with mouse fibroblast cell line NIH3T3; experiment: Pancreatic microtumor (3D microtissue) size/growth assay; settings: for effect on pancreatic microtumor growth: dosed for 8h with a 48h gap (FIG. 5); for Response: 14 days window; for ΔT14/ΔC14: day 14
Method: Both cells were expanded in cell culture flasks using Dulbecco's modification of Eagle medium (DMEM) supplemented with 10% fetal calf serum. After reaching confluency the were removed from the cell culture flask enzymatic digestion (Trypsin). Cell numbers of both cell types were assessed using a Neubauer chamber, and the respective cell number mixed to produce the co-culture microtumors. Seventy ul of the cell mixture was inoculated in each well of a non-adhesive 96-well plates (GravityTRAP™) using Dulbecco's modification of Eagle medium (DMEM) supplemented with 10% horse serum. Pancreatic microtumors were matured in a mammalian cell culture incubator at 37° C. with 5% CO2. […] After 48 hours the drug was removed by changing the culture medium with drug-free medium. The size of the pancreatic microtumors was monitored prior dosing and continuously after dosing using bright field microscopy. Growth is presented relative to the size of the pancreatic tumor microtissue prior compound treatment t0 (adapted from the RECIST criteria).
All drugs used were dissolved according to the manufactures protocol.

[4] = test system: microtumors from NSCLC cells directly derived from patients (NSCLC resection); experiment: Patient-derived NSCLC microtumor growth assay; format: cell-based, human; settings: dosed 2× for 8h with a 48h gap (FIG. 12)
Method: A NSCLC resection was dissociated, and the cell Suspension used to produce microtumors in a multi-well format (FIG. 12A). Drugs were dosed 2× for 8h with a 48h gap.

[5] = reference cmax used for potency; cited from earlier work

SMILES: CC(=O)O[C@@]12CO[C@@H]1C[C@H](O)[C@@]1(C)C(=O)[C@H](O)C3=C(C)[C@@H](OC(=O)[C@H](O)[C@@H](NC(=O)OC(C)(C)C)c4ccccc4)C[C@@](O)([C@@H](OC(=O)c4ccccc4)[C@H]21)C3(C)C [Docetaxel]
- efficacy: impact on tumor growth [1]: higher efficacy
- cytotoxicity on stromal microtissues compared to untreated control ([2]; 4.05 ug/ml): less toxicity
- effect on pancreatic microtumor growth [3]: much slower
- sustainability of response ([3]; dosed for 8h with a 48h gap, compared with Gemcitabine (FIG. 5A)): more sustainable

SMILES: C#Cc1cccc(Nc2ncnc3cc(OCCOC)c(OCCOC)cc23)c1 [Erlotinib]
- effect on NSCLC microtumor growth [1]: reduced growth
- time after which growth relapses ([1]; dosed 2× for 8h with a gap of 48h (FIG. 11)): > 7 days
- impact on tumor growth, single doses [4]: hardly an impact on tumor growth

SMILES: Nc1ccn([C@@H]2O[C@H](CO)[C@@H](O)C2(F)F)c(=O)n1 [Gemcitabine]
- Time to MR (TMR) ([1]; Gemcitabine 0.1 ug/ml): 14 days
- Response ([1]; Gemcitabine 0.1 ug/ml): RE (≥20% decrease in microtumor size)
- ΔT14/ΔC14 ([1]; Gemcitabine 0.1 ug/ml, day 14): −2.72
- Time to MR (TMR) ([1]; Gemcitabine 0.3 ug/ml): 14 days
- Response ([1]; Gemcitabine 0.3 ug/ml): RE (≥20% decrease in microtumor size)
- ΔT14/ΔC14 ([1]; Gemcitabine 0.3 ug/ml, day 14): −4.04
- Time to MR (TMR) ([1]; Gemcitabine 0.5 ug/ml): 14 days
- Response ([1]; Gemcitabine 0.5 ug/ml): RE (≥20% decrease in microtumor size)
- ΔT14/ΔC14 ([1]; Gemcitabine 0.5 ug/ml, day 14): −3.87
- median cmax [5]: (median cmax = 20 ug/ml)
- Time to MR (TMR) ([3]; Gemcitabine 0.1 ug/ml): 10 days
- Time until relapse (TR) ([3]; Gemcitabine 0.1 ug/ml): 10 days
- Response ([3]; Gemcitabine 0.1 ug/ml): SR (+/−20% increase/decrease in size)
- ΔT14/ΔC14 ([3]; Gemcitabine 0.1 ug/ml, treatment effect to untreated control): −0.25
- Time to MR (TMR) ([3]; Gemcitabine 0.5 ug/ml): 10 days
- Time until relapse (TR) ([3]; Gemcitabine 0.5 ug/ml): 10 days
- Response ([3]; Gemcitabine 0.5 ug/ml): SR (+/−20% increase/decrease in size)
- ΔT14/ΔC14 ([3]; Gemcitabine 0.5 ug/ml): −0.23
- effect on pancreatic microtumor growth [3]: unfolds its effect quickly
- day after which treated microtumors relapsed ([3]; dosed for 8h with a 48h gap (FIG. 5A)): > 10 days

SMILES: CCc1c2c(nc3ccc(OC(=O)N4CCC(N5CCCCC5)CC4)cc13)-c1cc3c(c(=O)n1C2)COC(=O)[C@]3(O)CC [Irinotecan]
- ΔT14/ΔC14 [1]: −0.32
- Time to MR (TMR) ([1]; Irinotecan 6.75 ug/ml): 4 days
- Time until relapse (TR) ([1]; Irinotecan 6.75 ug/ml): 5 days
- ΔT14/ΔC14 ([1]; Irinotecan 6.75 ug/ml, day 14): −0.60
- Time to MR (TMR) ([1]; Irinotecan 27 ug/ml): 14 days
- Response ([1]; Irinotecan 27 ug/ml): RE (≥20% decrease in microtumor size)
- ΔT14/ΔC14 ([1]; Irinotecan 27 ug/ml, day 14): −3.09
- median cmax [5]: (median cmax = 5 ug/ml)
- Response ([3]; Irinotecan 0.675 ug/ml): PR (≥20%-100% increase in microtumor size)
- ΔT14/ΔC14 ([3]; Irinotecan 0.675 ug/ml): 1.04
- Time to MR (TMR) ([3]; Irinotecan 6.75 ug/ml): 7 days
- Time until relapse (TR) ([3]; Irinotecan 6.75 ug/ml): 7 days
- Response ([3]; Irinotecan 6.75 ug/ml): SR (+/−20% increase/decrease in size)
- ΔT14/ΔC14 ([3]; Irinotecan 6.75 ug/ml): 0.06
- Time to MR (TMR) ([3]; Irinotecan 67.5 ug/ml): 14 days
- Response ([3]; Irinotecan 67.5 ug/ml): RE (≥20% decrease in microtumor size)
- ΔT14/ΔC14 ([3]; Irinotecan 67.5 ug/ml): −0.36
- dose to growth correlation ([3]; indicated concentrations, drug removed after 48 hours, growth relative to size at t0 (FIG. 4)): clear correlation of dose to growth

SMILES: Nc1nc2[nH]cc(CCc3ccc(C(=O)N[C@@H](CCC(=O)O)C(=O)O)cc3)c2c(=O)[nH]1 [Pemetrexed]
- effect on NSCLC microtumor growth [1]: tumor remission
- effect on pancreatic microtumor growth [3]: did not affect tumor growth; also recorded: not active

SMILES: O=C1CCC(N2C(=O)c3ccccc3C2=O)C(=O)N1 (stereo not drawn) [Thalidomide]
- effect on NSCLC microtumor growth [1]: no significant impact on tumor growth remission
- impact on tumor growth, single doses [4]: hardly an impact on tumor growth

SMILES: CCC1=C[C@@H]2CN(C1)Cc1c([nH]c3ccccc13)[C@@](C(=O)OC)(c1cc3c(cc1OC)N(C)[C@H]1[C@@](O)(C(=O)OC)[C@H](OC(C)=O)[C@]4(CC)C=CCN5CC[C@]31[C@@H]54)C2 [Vinorelbin]
- efficacy: impact on tumor growth [1]: less impact on tumor growth
- cytotoxicity on stromal microtissues compared to untreated control ([2]; high dose 0.68 ug/ml): elevated cytotoxicity
